# Test results from article PMC8942850, “Boron clusters as broadband membrane carriers” (Nature, 2022).
# Columns and labels:
# [1] = U-tube transport experiment across a bulk chloroform layer; conditions: trans: 2 mM HPTS, pH 7.4
# Excerpt: U-tube transport experiments, across a bulk chloroform layer, unambiguously confirmed that the brominated cluster served as a non-covalent carrier across a hydrophobic bulk barrier (Extended Data Fig. 2a, b). To quantitatively characterize the transport efficiency of the new cluster carriers, the normalized fluorescence responses in the vesicle experiments (Fig. 2b) were plotted against cluster concentration to produce dose–response curves (Fig. 2c and Extended Data Fig. 3a). […] This activity rivals the pyrenebutyrate (1) gold standard in the field (Ea ≈ 5)[18], which we used throughout as a control.
# The U-tubes were home-made, similarly to those of Rebek and co-workers[52] and Matile and co-workers[19], and consisted of a small beaker with a central glass barrier separating the two aqueous phases, namely cis ([…]) and trans (receiving phase), but enabling the placement of an interfacing chloroform layer below the cis and trans phases. A 3 ml portion of CHCl3 was located in the U-tube and 1 ml of the cis and trans phases were added. The organic phase was stirred at 700 r.p.m. at room temperature. Aliquots (20 μl) from the aqueous trans phase were taken at different times, diluted to 450 μl with buffer (10 mM Tris, 107 mM NaCl, pH 7.4) and measured by fluorescence. […]
# HeLa cells = assay: Confocal imaging of TAMRA-R8 / TAMRA-D-R8 / TAMRA uptake in living cells
# Excerpt: Representative images of two biological replicates. […] Scale bars, 50 μm.
# Representative images of two biological replicates. […] Source data
# (1 picture or pasted object on this page, not shown here)
# [2] = Dynamic light scattering (vesicle size, cargo-carrier aggregates); format: physicochemical
# Description: DLS experiments were carried out on a Malvern Instruments DTS Nano 2000 Zeta-Sizer.
# Extended Data Fig. 1 Assays testing for stability vs leakage of the vesicles. a, Response of the HPTS/DPX assay towards a membrane-disrupting agent and chemical structures of the fluorescent dye HPTS and the quencher DPX. In this assay, large unilamellar vesicles are loaded with the HPTS/DPX probe/quencher pair, such that the fluorescence of HPTS is quenched. […] The cluster B12I12^2− (red trace) was identified as lytic agent because the mere addition of the cluster led to a fluorescence increase. […] In this assay, large unilamellar vesicles are loaded with CF at high concentration, such that the fluorescence is quenched. […] The cluster B12I12^2− (red trace) was identified as lytic agent because its mere addition led to a fluorescence increase. […] In b, e and f, Triton X-100 was added at t = 600 s to induce vesicle lysis and allow data normalization. Source data
# [3] = tested on: Escherichia coli Top10 strain; assay: Kanamycin A delivery in E. coli (OD570 growth); format: cell-based; conditions: incubation with the cluster alone, up to 1 mM
# Description: As a proof-of-principle, we investigated its potential to reduce the minimum inhibitory concentration of kanamycin A, an aminoglycoside antibiotic. Aminoglycosides function by binding to the bacterial 30S ribosomal subunit; consequently, effective passage through the cell wall and plasma membrane is essential for aminoglycosides to reach their intracellular targets. […]
# A preculture of E. coli Top10 cells was incubated overnight in LB medium with 50 µg ml^−1 streptomycin sulfate. […] After 18 h, the optical density at 570 nm, as an indicator of bacterial growth, was measured with a Tecan Infinite F200Pro microplate reader. Data were normalized for each concentration of B12Br12^2− relative to the control condition without antibiotic.
# Solid points indicate mean ± s.d. of three technical replicates. […] Cross-bars indicate mean ± s.d. of three independent experiments (two with technical triplicates, one with technical duplicates); values obtained in each experiment are represented by different shapes. c, Viability of HeLa cells after incubation with different doses of MMAF in the presence of 0, 5 and 10 μM B12Br12^2−. Solid points indicate mean ± s.d. of three technical replicates. d, Corresponding IC50 values of MMAF. […] Source data
substance,measurement,setting,value
B12Br12^2−,"Transport of DPX across chloroform, without peptide cargo",[1]; cis: 40 μM cluster and 20 mM DPX,faster and more efficient transport of DPX
same,"Transport of DPX across chloroform, with peptide cargo","[1]; cis: 40 μM cluster, 20 μM WR7, 20 mM DPX, 10 mM Tris, 107 mM NaCl, HPTS quenching",the fastest and most efficient transport of DPX
same,TAMRA-R8 fluorescence pattern in cells in presence of cluster,HeLa cells,diffuse peptide fluorescence
same,DLS of combinations of cluster with the different cargos (aggregates),[2],did not show any detectable signal of particles
same,"Bacterial survival, cluster alone",[3],did not affect bacterial survival
